In patent publication US12202805B2, “Process for preparing (5S)-{[2-(4-carboxyphenyl)ethyl] |2-(2-{|3-chloro-4'-(trifluoromethyl)biphenyl-4-yl]methoxy}phenyl)ethyl]aminol-5,6,7,8-tetrahydroquinoline-2-carboxylic acid and its crystalline forms for use as pharmaceutically active compound” (Bayer Aktiengesellschaft, priority 2021, dated 2025):
Several values for one entry are separate records, joined by “and”; a condition that tells them apart may be missing. Identical values can stand only once.

Test system: thromboxane A2 challenged PAH-minipig
Test: Haemodynamics in the anesthetized thromboxane challenged minipig, intratracheal dry powder (PAP, BP)
Assay type: in vivo, Göttingen Minipigs
Experimental: Healthy Göttingen Minipigs® Ellegaard (Ellegaard, Denmark) of both sexes and having a weight of 2-6 kg were used. The animals were sedated by i.m. administration of about 25 mg/kg ketamine and about 10 mg/kg azaperone. Anaesthesia was initiated by i.v. administration of about 2 mg/kg ketamine and about 0.3 mg/kg midazolam. Maintenance of anaesthesia was by i.v. administration of about 7.5-30 mg/kg/h ketamine and about 1-4 mg/kg/h midazolam (rate of infusion 1-4 ml/kg/h) and about 150 μg/kg/h pancuronium bromide (for example Pancuronium-Actavis). After intubation, the animals were ventilated by the ventilator at a constant respiratory volume (10-12 ml/kg, 35 breaths/min; Avea®, Viasys Healthcare, USA, or Engström Carestation, GE Healthcare, Freiburg, Germany) such that an end-tidal CO2 concentration of about 5% was achieved. Ventilation was performed with room air, enriched with about 40% oxygen (normoxia). For the measurement of the haemodynamic parameters such as pulmonary arterial pressure (PAP), blood pressure (BP) and heart rate (HR), catheters were inserted into the carotid artery to measure the blood pressure, and a Swan-Ganz® catheter was introduced in a flow-directed manner via the jugular vein into the pulmonary artery. The haemodynamic signals were recorded and evaluated by means of pressure transducers (Combitransducer, B. Braun, Melsungen, Germany)/amplifiers and Ponemah® as data acquisition software.
As reference pure Lactose vehicle was applied in the beginning of each experiment.

## O.O=C(O)c1ccc(CCN(CCc2ccccc2OCc2ccc(-c3ccc(C(F)(F)F)cc3)cc2Cl)[C@H]2CCCc3nc(C(=O)O)ccc32)cc1.O=C(O)c1ccc(CCN(CCc2ccccc2OCc2ccc(-c3ccc(C(F)(F)F)cc3)cc2Cl)[C@H]2CCCc3nc(C(=O)O)ccc32)cc1 [example 6a, (5S)—{[2-(4-Carboxyphenyl)ethyl][2-(2-{[3-chloro-4′-(trifluoromethyl)biphenyl-4-yl]methoxy}phenyl)-ethyl]amino}-5,6,7,8-tetrahydroquinoline-2-carboxylic acid semihydrate]
375 μg/kg i.t., within the last hour of the observation interval
  systemic blood pressure: slightly affected
Micronized hydrates, 1.5 mg/4 kg (=375 μg/kg) i.t.
  efficacy with regard to PAP reduction as well as systemic BP reduction: comparable efficacy
Time 0 min, 375 μg/kg i.t.
  BP (mean): 101 mmHg and 85 mmHg
  PAP(mean): 39.6 mmHg and 40.8 mmHg and 38.5 mmHg
Time 10 min, 375 μg/kg i.t.
  BP (mean): 103 mmHg and 83 mmHg and 79 mmHg
  PAP(mean): 40.2 mmHg and 41.1 mmHg
Time 20 min, 375 μg/kg i.t.
  BP (mean): 101 mmHg and 83 mmHg and 84 mmHg
  PAP(mean): 40.4 mmHg and 41.3 mmHg
Time 30 min, 375 μg/kg i.t.
  BP (mean): 100 mmHg and 81 mmHg and 88 mmHg
  PAP(mean): 40.2 mmHg and 41.3 mmHg
Time 40 min, 375 μg/kg i.t.
  BP (mean): 98 mmHg and 81 mmHg and 90 mmHg
  PAP(mean): 40.4 mmHg and 41.8 mmHg and 41.0 mmHg
Time 50 min, 375 μg/kg i.t.
  BP (mean): 99 mmHg and 78 mmHg and 89 mmHg
  PAP(mean): 40.7 mmHg and 41.7 mmHg and 40.9 mmHg
Time 60 min, 375 μg/kg i.t.
  BP (mean): 100 mmHg and 79 mmHg and 86 mmHg
  BP, % changes vs. prevalues: 100.6% and 99.7% and 97.2%
  PAP(mean): 41.2 mmHg and 42.0 mmHg and 40.9 mmHg
  PAP, % changes vs. prevalues: 100.7% and 99.4% and 99.2%
Time 70 min, 375 μg/kg i.t.
  BP (mean): 102 mmHg and 78 mmHg and 87 mmHg
  BP, % changes vs. prevalues: 102.6% and 98.4%
  PAP(mean): 38.8 mmHg and 40.6 mmHg and 40.1 mmHg
  PAP, % changes vs. prevalues: 94.7% and 96.1% and 97.0%
Time 80 min, 375 μg/kg i.t.
  BP (mean): 102 mmHg and 79 mmHg and 90 mmHg
  BP, % changes vs. prevalues: 102.6% and 99.7% and 101.8%
  PAP(mean): 34.1 mmHg and 39.9 mmHg and 37.7 mmHg
  PAP, % changes vs. prevalues: 83.4% and 94.5% and 91.2%
Time 90 min, 375 μg/kg i.t.
  BP (mean): 101 mmHg and 81 mmHg and 92 mmHg
  BP, % changes vs. prevalues: 101.6% and 102.2% and 104.0%
  PAP(mean): 30.1 mmHg and 37.7 mmHg and 36.6 mmHg
  PAP, % changes vs. prevalues: 73.4% and 89.2% and 88.7%
Time 100 min, 375 μg/kg i.t.
  BP (mean): 100 mmHg and 80 mmHg and 95 mmHg
  BP, % changes vs. prevalues: 100.6% and 101.0% and 107.4%
  PAP(mean): 28.3 mmHg and 35.9 mmHg and 35.0 mmHg
  PAP, % changes vs. prevalues: 69.0% and 85.0% and 84.7%
Time 110 min, 375 μg/kg i.t.
  BP (mean): 99 mmHg and 79 mmHg
  BP, % changes vs. prevalues: 99.6% and 99.7% and 111.9%
  PAP(mean): 27.2 mmHg and 34.8 mmHg and 34.0 mmHg
  PAP, % changes vs. prevalues: 66.5% and 82.4% and 82.1%
Time 120 min, 375 μg/kg i.t.
  BP (mean): 99 mmHg and 79 mmHg and 96 mmHg
  BP, % changes vs. prevalues: 99.6% and 99.7% and 108.6%
  PAP(mean): 26.4 mmHg and 34.1 mmHg and 32.9 mmHg
  PAP, % changes vs. prevalues: 64.4% and 80.8% and 79.7%
Time 130 min, 375 μg/kg i.t.
  BP (mean): 98 mmHg and 81 mmHg and 97 mmHg
  BP, % changes vs. prevalues: 98.6% and 102.2% and 109.7%
  PAP(mean): 25.7 mmHg and 33.7 mmHg and 31.7 mmHg
  PAP, % changes vs. prevalues: 62.8% and 79.9% and 76.7%
Time 140 min, 375 μg/kg i.t.
  BP (mean): 99 mmHg and 82 mmHg and 98 mmHg
  BP, % changes vs. prevalues: 99.6% and 103.5% and 110.8%
  PAP(mean): 25.3 mmHg and 33.2 mmHg and 31.3 mmHg
  PAP, % changes vs. prevalues: 61.8% and 78.7% and 75.7%
Time 150 min, 375 μg/kg i.t.
  BP (mean): 97 mmHg and 82 mmHg
  BP, % changes vs. prevalues: 97.6% and 103.5% and 109.7%
  PAP(mean): 25.0 mmHg and 32.9 mmHg and 30.7 mmHg
  PAP, % changes vs. prevalues: 60.9% and 78.0% and 74.3%
Time 160 min, 375 μg/kg i.t.
  BP (mean): 96 mmHg and 81 mmHg and 97 mmHg
  BP, % changes vs. prevalues: 96.6% and 102.2% and 109.7%
  PAP(mean): 24.5 mmHg and 32.5 mmHg and 30.2 mmHg
